ChEMBL document CHEMBL1821672, “Indolin-2-one p38α inhibitors II: Lead optimisation” (Bioorg Med Chem Lett, 2011)

Experiments:
[1] = Metabolic stability in rat hepatic microsomes assessed as compound turnover at 5 uM in presence of NADPH after 30 mins; type: ADME; details: liver microsomes, read-out: Activity
[2] = Metabolic stability in human hepatic microsomes assessed as compound turnover at 5 uM in presence of NADPH after 30 mins; type: ADME; details: liver microsomes, read-out: Activity
[3] = Metabolic stability in rat hepatic microsomes assessed as compound turnover at 5 uM in absence of NADPH after 30 mins; type: ADME; details: liver microsomes, read-out: Activity
[4] = Metabolic stability in human hepatic microsomes assessed as compound turnover at 5 uM in absence of NADPH after 30 mins; type: ADME; details: liver microsomes, read-out: Activity
Caco-2 [5] = test: (§1) Apparent permeability from apical to basolateral side of the human Caco2 cells; type: ADME, cell-based
Caco-2 [6] = test: (§2) Apparent permeability from basolateral to apical side of human Caco2 cells; type: ADME, cell-based
[7] = biological target: T1, Mitogen-activated protein kinase 14 (Homo sapiens, UniProt Q16539); test: Inhibition of human p38alpha using biotinylated ATF2 substrate by FRET assay
T1 sequence (Q16539 whole entry): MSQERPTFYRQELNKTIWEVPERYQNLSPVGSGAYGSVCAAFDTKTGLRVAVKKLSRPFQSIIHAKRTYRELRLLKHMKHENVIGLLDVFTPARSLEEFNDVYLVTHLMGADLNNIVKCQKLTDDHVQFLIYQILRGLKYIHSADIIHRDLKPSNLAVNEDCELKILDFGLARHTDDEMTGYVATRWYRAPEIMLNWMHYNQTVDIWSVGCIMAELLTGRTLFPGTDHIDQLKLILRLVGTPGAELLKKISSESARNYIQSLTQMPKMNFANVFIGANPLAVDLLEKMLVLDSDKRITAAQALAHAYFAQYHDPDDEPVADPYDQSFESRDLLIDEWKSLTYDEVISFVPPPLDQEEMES

[8] = biological target: T1, Mitogen-activated protein kinase 14; test: Inhibition of p38alpha in human whole blood assessed as reduction in TNF-alpha production by ELISA
[9] = Terminal half life in rat at 1 mg/kg, iv; type: ADME, organism-based; design: dose 1 mg/kg, route intravenous; details: in vivo, read-out: beta t1/2 (converted)
[10] = Cmax in rat at 1 mg/kg, iv; type: ADME, organism-based; design: dose 1 mg/kg, route intravenous; details: in vivo
[11] = Clearance in rat at 1 mg/kg, iv; type: ADME, organism-based; design: dose 1 mg/kg, route intravenous; details: in vivo
[12] = AUC (0 to infinity) in rat at 1 mg/kg, iv; type: ADME, organism-based; design: time infinity, dose 1 mg/kg, route intravenous; details: plasma
[13] = Volume of distribution at steady state in rat at 1 mg/kg, iv; type: ADME, organism-based; design: dose 1 mg/kg, route intravenous; details: in vivo, read-out: Vdss
[14] = Mean residence time in rat at 1 mg/kg, iv; type: ADME, organism-based; design: dose 1 mg/kg, route intravenous; details: in vivo
[15] = Cmax in rat at 10 mg/kg, po; type: ADME, organism-based; design: dose 10 mg/kg, route oral; details: in vivo
[16] = AUC (0 to infinity) in rat at 10 mg/kg, po; type: ADME, organism-based; design: time infinity, dose 10 mg/kg, route oral; details: plasma
[17] = biological target: RAF proto-oncogene serine/threonine-protein kinase (Homo sapiens, UniProt P04049); test: Inhibition of human c-RAF
RAF proto-oncogene serine/threonine-protein kinase, sequence (P04049 whole entry): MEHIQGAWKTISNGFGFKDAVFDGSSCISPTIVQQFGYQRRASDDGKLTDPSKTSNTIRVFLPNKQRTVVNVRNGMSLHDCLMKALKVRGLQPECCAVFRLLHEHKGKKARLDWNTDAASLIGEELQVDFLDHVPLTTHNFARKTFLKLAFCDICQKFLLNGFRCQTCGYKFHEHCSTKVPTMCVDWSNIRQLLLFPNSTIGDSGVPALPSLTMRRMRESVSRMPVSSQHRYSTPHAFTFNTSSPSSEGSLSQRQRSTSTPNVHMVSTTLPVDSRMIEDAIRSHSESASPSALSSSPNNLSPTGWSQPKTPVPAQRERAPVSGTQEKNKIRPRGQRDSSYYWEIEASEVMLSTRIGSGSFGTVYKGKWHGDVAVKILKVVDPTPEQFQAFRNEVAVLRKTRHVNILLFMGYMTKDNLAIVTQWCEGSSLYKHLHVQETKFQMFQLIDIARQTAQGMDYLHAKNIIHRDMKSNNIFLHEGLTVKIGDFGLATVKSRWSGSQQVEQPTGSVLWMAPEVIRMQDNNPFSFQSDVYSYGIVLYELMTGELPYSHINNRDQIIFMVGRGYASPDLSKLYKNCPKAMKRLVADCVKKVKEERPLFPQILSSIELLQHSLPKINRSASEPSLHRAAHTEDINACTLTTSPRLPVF

[18] = Oral bioavailability in rat at 10 mg/kg; type: ADME, organism-based; details: in vivo
CHO = test: Cytotoxicity against CHO cells; type: cell-based; details: Cricetulus griseus
[19] = as §1; type: ADME, cell-based; details: caco-2
[20] = as §2; type: ADME, cell-based; details: caco-2
[21] = Cytotoxicity against CHO cells at 200 uM; type: cell-based, Cricetulus griseus; details: chinese hamster, read-out: INH

| Structure (SMILES) | metabolised at 0.5 h, 5 µM [1] [%] | metabolised at 0.5 h, 5 µM [2] [%] | metabolised at 0.5 h, 5 µM [3] [%] | metabolised at 0.5 h, 5 µM [4] [%] | Papp (Caco-2 [5]) | Papp (Caco-2 [6]) | IC50 [7] [nM] | IC50 [8] [nM] | further results |
| --- | --- | --- | --- | --- | --- | --- | --- | --- | --- |
| Cc1ccc(C(=O)NC2CC2)cc1-c1ccc2c(c1)NC(=O)C21CCCCC1 | 47 | 57 | < 5 | 29 | permeable | permeable |  |  |  |
| Cc1ccc(C(=O)NC2CC2)cc1-c1ccc2c(c1)NC(=O)C2(CCO)CCO |  |  |  |  | permeable | permeable | 4570 |  |  |
| Cc1c(F)cc(C(=O)NC2CC2)cc1-c1ccc2c(c1)NC(=O)C21CCN(S(C)(=O)=O)CC1 | 18 | 36 | < 5 | 53 | permeable | permeable |  | 20 |  |
| Cc1ccc(C(=O)NC2CC2)cc1-c1ccc2c(c1)NC(=O)C21CCOCC1 | 16 | 34 | < 5 | 40 | permeable | permeable | 1.65 | 14 | half-life [9]: 2.7 h; Cmax [10]: 1530 ng/mL; clearance [11]: 6.67 mL/min/kg; AUC(0-inf) [12]: 2770 ng·h/mL; Vd [13]: 0.8 L/kg; MRT [14]: 2.2 h; Cmax [15]: 1310 ng/mL; AUC(0-inf) [16]: 10400 ng·h/mL; IC50 [17]: 120 nM; bioavailability [18]: 40% |
| Cc1ccc(C(=O)Nc2ccon2)cc1-c1ccc2c(c1)NC(=O)C21CCOCC1 | 23 | 74 | < 5 | 72 | permeable | permeable | 0.09 | 7 |  |
| Cc1ccc(C(=O)NC2CC2)cc1-c1ccc2c(c1)NC(=O)C21CCSCC1 | 97 | 72 | < 5 | 41 | permeable | permeable | 0.08 | 16 | IC50 (CHO): 16000 nM |
| Cc1ccc(C(=O)NC2CC2)cc1-c1ccc2c(c1)NC(=O)C21CCS(=O)(=O)CC1 | 0 | 5 | < 5 | 11 |  |  |  | 75 | Papp A→B [19]: 4 ×10⁻⁶ cm/s; Papp B→A [20]: 25 ×10⁻⁶ cm/s |
| Cc1ccc(C(=O)NC2CC2)cc1-c1ccc2c(c1)NC(=O)[C@]21CC[C@@H](O)CC1 | 2 | 65 | < 5 | 81 | permeable | permeable | 1.4 | 5 |  |
| Cc1ccc(C(=O)NC2CC2)cc1-c1ccc2c(c1)NC(=O)[C@]21CC[C@H](O)CC1 | 15 | 40 | 7 | 61 | permeable | permeable | 1.4 | 11 |  |
| Cc1ccc(C(=O)NC2CC2)cc1-c1ccc2c(c1)NC(=O)C21CCC(F)(F)CC1 | < 5 | < 5 | < 5 | < 5 | permeable | permeable |  | 10 | IC50 (CHO): 7000 nM; half-life [9]: 14.4 h; Cmax [10]: 436 ng/mL; clearance [11]: 3.33 mL/min/kg; AUC(0-inf) [12]: 5020 ng·h/mL; Vd [13]: 4.2 L/kg; MRT [14]: 21 h |
| Cc1ccc(C(=O)Nc2ccon2)cc1-c1ccc2c(c1)NC(=O)C21CCC(F)(F)CC1 | 14 | 17 | < 5 | 17 | permeable | permeable | 0.9 | 4.9 |  |
| Cc1ncc(C(=O)NC2CC2)cc1-c1ccc2c(c1)NC(=O)C21CCCC1 | 30 | 29 | < 5 | 11 | permeable | permeable | 7.4 | 150 | cytotoxicity at 200 µM [21]: 68% |
| Cc1ccc(C(=O)NC2CC2)cc1-c1ccc2c(n1)NC(=O)C21CCCC1 | 33 | 19 | 11 | 16 | permeable | permeable |  | 128 | IC50 (CHO): 58000 nM |
| Cc1ccc(C(=O)NC2CC2)cc1-c1cc2c(cn1)C1(CCCC1)C(=O)N2 | 21 | 10 | < 5 | < 5 | permeable | permeable |  | 64 | cytotoxicity at 200 µM [21]: 29% |
| Cc1ccc(C(=O)NC2CC2)cc1-c1cnc2c(c1)NC(=O)C21CCCC1 | 16 | 19 | < 5 | 10 | permeable | permeable | 1.8 | 69 | cytotoxicity at 200 µM [21]: 62%; IC50 [17]: 105 nM |
| Cc1ccc(C(=O)NC2CC2)cc1-c1cnc2c(c1)NC(=O)C21CCOCC1 | 0 | 8 | 5 | 16 | permeable | permeable |  | 86 | cytotoxicity at 200 µM [21]: 36% |
| Cc1ccc(C(=O)NC2CC2)cc1-c1cnc2c(c1)NC(=O)C21CCC(F)(F)CC1 | 19 | 1 | < 5 | < 5 | permeable | permeable | 2.3 | 188 | IC50 (CHO): 49000 nM |
| Cc1ccc(C(=O)NC2CC2)cc1-c1cnc2c(c1)NC(=O)C2(C)C | 2 | 8 | < 5 | 7 | permeable | permeable |  | 544 |  |
| Cc1ccc(C(=O)NC2CC2)cc1-c1ncc2c(n1)NC(=O)C21CCCC1 |  |  |  |  | permeable | permeable |  | 1100 |  |
| Cc1ccc(C(=O)NC2CC2)cc1-c1cnc2c(c1)NC(=O)C21CCCC1.Cl |  |  |  |  |  |  |  |  | half-life [9]: 3.9 h; Cmax [10]: 1240 ng/mL; clearance [11]: 10 mL/min/kg; AUC(0-inf) [12]: 1850 ng·h/mL; Vd [13]: 1.2 L/kg; MRT [14]: 2.2 h; Cmax [15]: 4620 ng/mL; AUC(0-inf) [16]: 12000 ng·h/mL; bioavailability [18]: 65% |
